Data on 1 molecule can be found in paper PMC7369637, “Inhibition of Resistance-Refractory P. falciparum Kinase PKG Delivers Prophylactic, Blood Stage, and Transmission-Blocking Antiplasmodial Activity” (Cell Chemical Biology, 2020).

Usually pIC50 stands for −log10 of the IC50, conventionally taken in molar units.

The subject of assay [1] is sel. Dd2-B2 TKL3T1268R. The assay is described as follows: 72-h ABS assay, MMV030084-selected line. The assay is classed as cell-based, Plasmodium falciparum. Conditions: Plasmodium falciparum. As for the experimental part:
(§1) Synchronicity was achieved using three rounds of sorbitol treatment on early rings, spaced 48 h apart, followed by magnetic purification of segmented schizonts following the final sorbitol treatment. Parasites were highly synchronous to within a 3 h window of development. Assays were repeated on at least three independent occasions (each with technical duplicates) and statistical significance was assessed using Mann Whitney U tests.
(§2) The resulting MMV030084-resistant parasites were cloned by limiting dilution ([Baker et al., 2017]) to obtain genetically homogenous cultures for further phenotyping and whole-genome sequencing. A second round of […]. […] Drug susceptibility of resistant lines was assessed using a 72 h ABS assay as described above, and a Mann Whitney U test was applied to assess statistically significant differences.

For assay [2], the system named is Dd2-B2 TKL3KO parasites with PP1 H237D/V249L or URP E20* mutations. The assay is described as follows: 72-h ABS assay, lines pulse-selected from ed. Dd2-B2 TKL3KO. In kind it is cell-based. Conditions: Plasmodium falciparum, parent ed. Dd2-B2 TKL3KO. The method, then:
as §1, §2

Assay [3] has as its system mature (stage V) NF54 gametocytes. As to the kind of experiment: Gametocyte susceptibility, saponin lysis-based MitoTracker high-content imaging assay. The assay is classed as cell-based. The settings on record: Plasmodium falciparum, saponin lysis-based sexual stage assay, 72 h. As for the experimental part: This was determined using two separate assays. The first involved MitoTracker staining and high-content imaging. Mature (stage V) gametocytes were generated from NF54 ABS cultures as described elsewhere ([Plouffe et al., 2016]). Briefly, asexual parasites were cultured at 5% hematocrit in O^+ human erythrocytes in serum-containing complete media (RPMI 1640 (Life Technologies), 0.05 mg/ml gentamicin (Life Technologies), 0.014 mg/ml hypoxanthine (Sigma), 38.4 mM HEPES (Sigma), 0.2% (w/v) sodium bicarbonate (Sigma), D-glucose 0.2% (w/v) (Sigma), 3.4 mM sodium hydroxide (Sigma), 4.3% (v/v) heat-inactivated human serum (O^+, Interstate Blood bank), and 0.2% (w/v) AlbuMAX® II (Life Technologies)). […] The second assay assessed gametocyte susceptibility using a luciferase-based assay with 3D7elo1-pfs16-CBG99 transgenic parasites ([Cevenini et al., 2014]). […] Cell viability was then evaluated by adding a non-lysing formulation of 0.5 mM D-Luciferin substrate and measuring luciferase activity for 0.5 s on a Varioskan™ Flash Multimode Reader (Thermo Scientific). The percent of viability was calculated as a function of drug concentration and IC50 values were derived by non-linear regression analysis and curve fitting (using GraphPad Prism 6.0).

In assay [4] the test system is P. berghei ANKA liver stages. The assay is described as follows: Liver stage susceptibility, luciferase-based assay (PbLuc sporozoites in HepG2). The assay is classed as cell-based. The settings on record: Plasmodium berghei. The method, then: P. berghei ANKA infections were maintained in BALB/c female mice (The Jackson Laboratory) infected via intraperitoneal injection of 2×10^7 blood stage parasites. Infected mice were provided water ad libitum and housed in standard cages in an animal facility room maintained at 22°C and 50-70% relative humidity. Anopheles stephensi mosquitoes were housed in an insectary maintained at 27°C, 80% humidity and a 12:12 light:dark schedule. […] 24 h before infection, 384-well plates (Greiner Bio) were seeded with 1x10^4 HepG2-A16-CD81^EGFP cells in 30 μL of assay medium (DMEM without Phenol Red (Life Technologies, CA), 5% FBS and 5x Pen-Strep Glutamine (Life Technologies, CA)). Luciferase-expressing Pb (PbLuc) sporozoites were freshly obtained by dissecting salivary glands of infected Anopheles stephensi mosquitoes and 5x10^3 sporozoites in 30 μL were added to each well. Plates were centrifuged for 5 min at 330g and incubated for 2 h at 37°C and 5% CO2. Unbound sporozoites were then removed by centrifugation and washing and 30 μL of fresh medium was added. […] Luminescence was measured using an Envision Multilabel Reader (PerkinElmer) to assess parasite growth as a function of compound concentrations.

pIC50: −log10 of the molar value. Read-outs that look alike come from different tables or passages of the source.

For the molecule `CC(C)(CN)c1nc(-c2ccc(Cl)c(O)c2)c(-c2ccncc2)[nH]1` [MMV030084], the pIC50 in assay [1] is 6.45; in assay [2] (DD2, Line sel. Dd2-B2 TKL3KO + PP1H237D), 6.21; in assay [2] (DD2, Line sel. Dd2-B2 TKL3KO + PP1V249L), 6.26; in assay [2] (DD2, Line sel. Dd2-B2 TKL3KO + URPE20*) it was 6.09; in assay [3], < 4.40; in assay [4] (HepG2, compound added 2 h after infection, read-out: IC50, liver stage, post-invasion exposure) it was < 5.00. Also, in assay [4] (luciferase-expressing Pb parasites, host HepG2 liver cells, pre-invasion exposure, read-out: IC50, liver stage), the pIC50 is 6.70.
